This note sets out measurements from patent US20240124483A1, “Methods for the Treatment of Fibrotic Disease” (SHY Therapeutics, LLC, priority 2021, published 2024).

Read-outs that look alike come from different tables or passages of the source.

One test relates to Smad2/3 phosphorylation. The test can be described thus: Phospho-Smad2/3 Inhibition Assay in Panc-1 (western blot). Conditions: Homo sapiens; for inhibition at 10 µM: 3 hours, PANC-1 stimulated with 10 ng/ml TGF-b1 for 1 hour, read-out: % inh of Smad2/3 phosphorylation in PANC-1; for IC50: PANC-1, TGF-b1 stimulated. Type of test: cell-based. As for the experimental part: (§1) Cell lines: Human tumor-derived pancreatic cancer cell line Panc-1 and mouse muscle myoblast C2C12 were purchased from American Type Culture Collection and grown in complete DMEM-High Glucose, supplemented with penicillin (100 U/mL), streptomycin (100 μg/mL), and 10% heat-inactivated FBS at 37° C. in a humidified incubator with 5% CO2.
(§2) Method: Cells were plated at 350000 cells/well density in a 12-well plate, allowed 3 hours to adhere to the plate, then starved in the appropriate medium in the presence of 0.5% FBS overnight. The small molecules to be tested were added to the cells in the final concentration of 10 μM in the presence of 0.3% DMSO for 3 hours incubation at 37° C. For IC50 value determination, serial dilutions of compounds were added to cells under the same conditions. Next, Panc-1 cells were stimulated with 10 ng/ml TGF-b1 for 1 hour, and C2C12 cells were stimulated with 10 ng/ml TGF-b1 for 20 minutes (recombinant human TGF-b1, R&D Systems). After stimulation cells were lysed with lysis buffer containing 1% Triton X-100, EDTA, and Halt™ Protease & Phosphatase Inhibitor Cocktail (Thermo Scientific). Protein concentration was assessed by BCA protein assay (Thermo Scientific). Phosphorylation level of Smad2/Smad3 was determined by western blot.
(§3) Western blot protocol: Equal amounts of protein (15-50 μg) were separated by SDS-PAGE and transferred to nitrocellulose membranes (Invitrogen by Thermo Fisher Scientific). The membrane was stained with Ponceau S Stain (Boston BioProducts) to verify uniform protein loading. Membranes were blocked with 10% milk and phosphorylation levels of Smad2/Smad3 were assessed by incubating overnight at 4° C. with the following antibodies: Phospho-Smad2 (Ser465/467) and Phosph-Smad3 (Ser423/425), both from Cell Signaling Technology. Then the membranes were incubated with HRP-conjugated secondary antibody (Jackson Immunoresearch, West Grove, PA). Bands were incubated in Amersham ECL Prime Western Blotting Detection Reagent (GE Healthcare) and visualized using the ChemiDoc MP imaging system (Bio-Rad).

For another test, the system named is MAPK p38. Put plainly: MAPK p38 Activation Assay in Panc-1 (western blot). Type of test: cell-based, Human. Also on record: key: Y = yes; N = No. To be noted: at 10 μM. How it is done: as §1
as §2, with “MAPK p38” for “Smad2/Smad3”
as §3, with “antibody: Phospho-p38 MAPK (Thr180/Tyr182),” for “antibodies: Phospho-Smad2 (Ser465/467) and Phosph-Smad3 (Ser423/425), both”

The next test deals with Rac-1 (Homo sapiens (Human), UniProt P63000). The test can be described thus: Ras GTP Binding Domain Inhibition Assay, Rac-1. How it is done:
A Ras Superfamily Activity Assay (as disclosed in International Application No. PCT/US2018/038613, filed Jun. 20, 2018, which is incorporated by reference in its entirety) was used as a specific assay to evaluate compounds against the following for the following Ras Superfamily proteins: KRas wild type, KRas Q61H mutant, KRas G12C mutant, KRas G12D mutant, Rac-1, and Rho-A.
Buffer-I: • 25 mM Tris-HCl, pH 7.4 • 27 mM KCl • 137 mM NaCl • 1 mM MgCl2 • 1 mM DTT
Buffer-II: • 50 mM Tris-HCl, pH 7.0 • 1 mM MgCl2 • 1 mM DTT
The small GTPases proteins: KRas wild type. KRas Q61H mutant, KRas G12C mutant, KRas G12D mutants, Rac-1, and Rho-A were expressed as His-tagged proteins. In addition, the Guanosine nucleotide Exchange Factor (GEF) Sos protein (residues 556-1049) was expressed as a His-tagged protein. In cells, the guanine nucleotide exchange factor Sos protein promotes activation of Ras proteins by stimulating an exchange of GDP for GTP. The inclusion of Sos to the Ras GTP binding domain inhibition assay may be considered as an alternative representation of physiological cellular conditions for evaluating the inhibitory activity of some of the tested small molecules.
For the assay, all purified small GTPases proteins were diluted in Buffer-I or Buffer-II to a final concentration of 10-30 μg/mL. 200 μL of each diluted protein was added to a nickel-coated 96-well plate and incubated overnight at 4° C. Then the protein solution was discarded and 200 μL of Buffer-I or Buffer-II was added to each well in the presence of 1% DMSO. Compounds to be tested were added to the protein-coated wells at final concentration of 20 μM, and incubated for 3 hours at room temperature with and without 10-30 μg/mL of Sos added to the final hour of the incubation. When performing IC50 measurements a serial dilution of all tested concentrations was added. Then Cy3-GTP or Cy5-GTP was added to each well to a final concentration of 100 nM. The labeled GTP was incubated for 45 minutes at room temperature. Following GTP incubation, wells were washed 3× in Buffer-I or Buffer-II and 200 μL of Buffer-I or Buffer-II was added to each well. Following washes, the amount of bound labeled-GTP was measured using a SpectraMax M3 (Molecular Devices).

Setting [1] is: + SOS, read-out: Rac-1 + SOS: % inh.
[2] abbreviates: without SOS, read-out: Rac-1: % inh.

For the compound `COCCNc1nc(-c2nccn2C)nc2sc(-c3cccc(OC)c3Cl)c(-c3ccc(OC)cc3)c12` [Compound 7, 6-(2-Chloro-3-methoxyphenyl)-N-(2-methoxyethyl)-5-(4-methoxyphenyl)-2-(1-methyl-1H-imidazol-2-yl)thieno[2,3-d]pyrimidin-4-amine], in the test on Smad2/3 phosphorylation, the inhibition at 10 µM was found to be 0% and the IC50 was 5 to 10 µM. The “Activation of MAPK p38 in PANC-1” value in the test on MAPK p38 is reported as “Y”. Moreover, the inhibition at 20 µM on Rac-1 (setting [1]) lay in the range of 46 to 75%. Moreover, the inhibition at 20 µM on Rac-1 (setting [2]) lay within 46 to 75%.

On to `CO[C@@H]1CC[C@H](Nc2nc(-c3nccn3C)nc3sc(-c4ccn(C(C)C)n4)c(-c4ccccc4)c23)C1` (single isomer, unassigned) [Compound 11], for which, in the test on Smad2/3 phosphorylation, the inhibition at 10 µM lay within 46 to 75%. The “Activation of MAPK p38 in PANC-1” value in the test with MAPK p38 is on record as “Y”. Besides, the inhibition at 20 µM on Rac-1 (setting [1]) is 26 to 45%; at Rac-1 (setting [2]) it was 1 to 25%.

`COCCNc1nc(-c2nccn2C)nc2sc(-c3ccccc3)c(-c3ccccc3)c12` [Compound 1, N-(2-Methoxyethyl)-2-(1-methyl-1H-imidazol-2-yl)-5,6-diphenylthieno[2,3-d]pyrimidin-4-amine]: in the test with Smad2/3 phosphorylation, the inhibition at 10 µM fell in the range of 46 to 75%. Further, the “Activation of MAPK p38 in PANC-1” value in the test on MAPK p38 is on record as “N”. Also, on Rac-1 (setting [2]), the inhibition at 20 µM lay in the range of 76 to 100%.

Regarding `COc1cc(Nc2nc(-c3nccn3C)nc3sc(-c4ccn(C(C)C)n4)c(C)c23)ncn1` [Compound 19, 6-(1-Isopropyl-1H-pyrazol-3-yl)-N-(6-methoxypyrimidin-4-yl)-5-methyl-2-(1-methyl-1H-imidazol-2-yl)thieno[2,3-d]pyrimidin-4-amine], in the test on Smad2/3 phosphorylation, the inhibition at 10 µM is 76 to 100%. Moreover, the “Activation of MAPK p38 in PANC-1” value in the test with MAPK p38 is listed as “Y”. Also, the inhibition at 20 µM on Rac-1 (setting [2]) is 46 to 75%.

Turning to `COc1nccc(-c2sc3nc(-c4nccn4C)nc(N[C@H]4C[C@H](OC)C4)c3c2-c2ccccc2)c1F` [Compound 45, 6-(3-Fluoro-2-methoxypyridin-4-yl)-N-((1r,3r)-3-methoxycyclobutyl)-2-(1-methyl-1H-imidazol-2-yl)-5-phenylthieno[2,3-d]pyrimidin-4-amine], the inhibition at 10 µM with Smad2/3 phosphorylation lay within 76 to 100%. Further, the “Activation of MAPK p38 in PANC-1” value in the test on MAPK p38 was “N”. Further, on Rac-1 (setting [2]), the inhibition at 20 µM lay in the range of 46 to 75%.

As for `COCCCCn1c(-c2nccn2C)nc2sc(-c3ccn(C(C)C)n3)c(C)c2c1=O` [Compound 33, 6-(1-Isopropyl-1H-pyrazol-3-yl)-3-(4-methoxybutyl)-5-methyl-2-(1-methyl-1H-imidazol-2-yl)thieno[2,3-d]pyrimidin-4(3H)-one], the inhibition at 10 µM in the test on Smad2/3 phosphorylation came to 0%. The “Activation of MAPK p38 in PANC-1” value in the test with MAPK p38 is reported as “N”. On Rac-1 (setting [2]), the inhibition at 20 µM came out at 0%.

As for `COCCCOc1nc(-c2nccn2C)nc2sc(-c3ccn(C(C)C)n3)c(C)c12` [Compound 32, 6-(1-Isopropyl-1H-pyrazol-3-yl)-4-(3-methoxypropoxy)-5-methyl-2-(1-methyl-1H-imidazol-2-yl)thieno[2,3-d]pyrimidine], the inhibition at 10 µM with Smad2/3 phosphorylation was determined as 0%. Also, the “Activation of MAPK p38 in PANC-1” value in the test with MAPK p38 is listed as “N”. For the same compound, the inhibition at 20 µM on Rac-1 (setting [2]) worked out at 0%.

Take `Cc1c(-c2ccn(C(C)C)n2)sc2nc(-c3nccn3C)nc(NCC3CN(C)CCO3)c12` (racemic) [Compound 25, rac-6-(1-Isopropyl-1H-pyrazol-3-yl)-5-methyl-2-(1-methyl-1H-imidazol-2-yl)-N-((4-methylmorpholin-2-yl)methyl)thieno[2,3-d]pyrimidin-4-amine]: in the test on Smad2/3 phosphorylation, the inhibition at 10 µM came to 0%. In addition, in the test on MAPK p38, the “Activation of MAPK p38 in PANC-1” value is given as “Y”. The inhibition at 20 µM on Rac-1 (setting [2]) is 76 to 100%.

On to `COCCNc1nc(-c2nccn2C)nc2sc(-c3cccc(OC)c3Cl)c(-c3ccccc3)c12` [Compound 9, 6-(2-Chloro-3-methoxyphenyl)-N-(2-methoxyethyl)-2-(1-methyl-1H-imidazol-2-yl)-5-phenylthieno[2,3-d]pyrimidin-4-amine], for which, in the test with Smad2/3 phosphorylation, the inhibition at 10 µM is 76 to 100% and the IC50 was 1 to 4.99 µM. For the same compound, the “Activation of MAPK p38 in PANC-1” value in the test on MAPK p38 is reported as “Y”. Further, the inhibition at 20 µM at Rac-1 (setting [1]) is 46 to 75%. The inhibition at 20 µM at Rac-1 (setting [2]) fell in the range of 46 to 75%.

On to `COCCCCOc1nc(-c2nccn2C)nc2sc(-c3ccn(C(C)C)n3)c(C)c12` [Compound 34, 6-(1-Isopropyl-1H-pyrazol-3-yl)-4-(4-methoxybutoxy)-5-methyl-2-(1-methyl-1H-imidazol-2-yl)thieno[2,3-d]pyrimidine], for which the inhibition at 10 µM in the test with Smad2/3 phosphorylation was 0%. In the test on MAPK p38, the “Activation of MAPK p38 in PANC-1” value is listed as “N”. The inhibition at 20 µM on Rac-1 (setting [2]) is 0%.

On to `COCCNc1nc(-c2nccn2C)nc2sc(-c3ccccc3)c(-c3ccccc3Cl)c12` [Compound 4, 5-(2-Chlorophenyl)-N-(2-methoxyethyl)-2-(1-methyl-1H-imidazol-2-yl)-6-phenylthieno[2,3-d]pyrimidin-4-amine], for which the inhibition at 10 µM in the test on Smad2/3 phosphorylation fell in the range of 26 to 45%. Further, the “Activation of MAPK p38 in PANC-1” value with MAPK p38 is “Y”. Further, the inhibition at 20 µM at Rac-1 (setting [2]) fell in the range of 26 to 45%.

Regarding `COCC1CN(c2nc(-c3nccn3C)nc3sc(-c4ccn(C(C)C)n4)c(C)c23)CCO1` (racemic) [Compound 15, 4-(6-(1-Isopropyl-1H-pyrazol-3-yl)-5-methyl-2-(1-methyl-1H-imidazol-2-yl)thieno[2,3-d]pyrimidin-4-yl)-2-(methoxymethyl)morpholine], the inhibition at 10 µM with Smad2/3 phosphorylation is 26 to 45%. Moreover, the “Activation of MAPK p38 in PANC-1” value in the test with MAPK p38 is “Y”. The inhibition at 20 µM on Rac-1 (setting [2]) fell in the range of 76 to 100%.

For `CO[C@H]1CNC[C@@H](Nc2nc(-c3nccn3C)nc3sc(-c4ccn(C(C)C)n4)cc23)C1` [Compound 28, 6-(1-Isopropyl-1H-pyrazol-3-yl)-N-((3S,5R)-5-methoxypiperidin-3-yl)-2-(1-methyl-1H-imidazol-2-yl)thieno[2,3-d]pyrimidin-4-amine], in the test on Smad2/3 phosphorylation, the inhibition at 10 µM came to 0%. Besides, the “Activation of MAPK p38 in PANC-1” value in the test on MAPK p38 was “Y”. At Rac-1 (setting [2]), the inhibition at 20 µM was in the range of 46 to 75%.
